Reference: patent publication US20230339866A1, “Quinazoline compounds and the use thereof in the treatment of cancer” (TROBIO THERAPEUTICS PTY LTD, priority 2020, published 2023)

Tests used:
A549 (NSCLC) = experiment: Anti-proliferative activity (Cell-Titre luminescence) against A549 non-small cell lung cancer cells; format: cell-based; conditions: Homo sapiens, A549, 72 h, 72 h exposure, Cell-Titre luminescent reagent
Experimental: (§1) The ability of compounds of the invention to inhibit the proliferation of cancer cells representative of non-small cell lung cancer and ovarian cancer (Table 2), pancreatic cancer, colorectal cancer and prostate cancer (Table 3) was assessed. Briefly, a predetermined number of cells as calculated from cell growth assays for each of the cell lines employed were seeded into their respective culture medium (using ATCC culture parameters—http://www.atcc.org) and cultured for 24 h at 37° C. and 5% CO2 in 96-well culture plates. Once attached, each cell line was then exposed to various concentrations of each respective analogue (30, 10, 3, 1, 0.3 and 0.1 μM), cultured for a further 72 h and exposed to Cell-Titre luminescent reagent (100 μL/well) for a further 30 min. Luminescence was captured using an EnVision multilabel reader and the data for each analogue concentration compared against no treatment control. Cell viability was normalised to control (vehicle alone) and dose response curves, and half maximal effective concentration (EC50) values were determined using Graph Pad Prism 6 (nonlinear regression sigmoidal dose-response variable slope).

A2780 (ovarian) = experiment: Anti-proliferative activity (Cell-Titre luminescence) against A2780 ovarian cancer cells; format: cell-based; conditions: Homo sapiens, A2780, 72 h, 72 h exposure, Cell-Titre luminescent reagent
Experimental: as §1

SMILES	IC50 (A549 (NSCLC)) [µM]	IC50 (A2780 (ovarian)) [µM]
COc1cccc(CNc2nc(NCCN3CCN(C)CC3)c3ccccc3n2)c1 [Compound 48, N^2-(3-methoxybenzyl)-N^4-(2-(4-methylpiperazin-1-yl)ethyl)quinazoline-2,4-diamine]	7.4	4.52
COc1ccc(CNc2nc(NCCN3CCN(C)CC3)c3ccccc3n2)cc1 [Compound 49, N^2-(4-methoxybenzyl)-N^4-(2-(4-methylpiperazin-1-yl)ethyl)quinazoline-2,4-diamine]	8.77	6.87
CN1CCN(CCNc2nc(NCCc3ccccc3)nc3ccccc23)CC1 [Compound 50, N^4-(2-(4-methylpiperazin-1-yl)ethyl)-N^2-phenethylquinazoline-2,4-diamine]	5.3	7.68
CN1CCN(CCNc2nc(NCCc3ccc(C(F)(F)F)cc3)nc3ccccc23)CC1 [Compound 52, N^4-(2-(4-methylpiperazin-1-yl)ethyl)-N^2-(4-(trifluoromethyl)phenethyl)quinazoline-2,4-diamine]	5.6	1.19
COc1cccc(CCNc2nc(NCCN3CCN(C)CC3)c3ccccc3n2)c1 [Compound 53, N^2-(3-methoxyphenethyl)-N^4-(2-(4-methylpiperazin-1-yl)ethyl)quinazoline-2,4-diamine]	> 30	18.2
CCc1ccc(Nc2nc(NCCN3CCN(C)CC3)c3ccccc3n2)cc1 [Compound 55, N^2-(4-ethylphenyl)-N^4-(2-(4-methylpiperazin-1-yl)ethyl)quinazoline-2,4-diamine]	4.45	7.16
CN1CCN(CCNc2nc(NCCc3cccc(F)c3)nc3ccccc23)CC1 [Compound 58, N^2-(3-fluorophenethyl)-N^4-(2-(4-methylpiperazin-1-yl)ethyl)quinazoline-2,4-diamine]	5.85	6.22
CN1CCN(CCNc2nc(NCCc3ccc(F)cc3)nc3ccccc23)CC1 [Compound 59, N^2-(4-fluorophenethyl)-N^4-(2-(4-methylpiperazin-1-yl)ethyl)quinazoline-2,4-diamine]	3.7	5.54
COc1ccc(Nc2nc(NCCN(C)C)c3ccccc3n2)cc1 [Compound 61, N^4-(2-(dimethylamino)ethyl)-N^2-(4-methoxyphenyl)quinazoline-2,4-diamine]	11.9	7.09
CCc1ccc(Nc2nc(NCCN(C)C)c3ccccc3n2)cc1 [Compound 62, N^4-(2-(dimethylamino)ethyl)-N^2-(4-ethylphenyl)quinazoline-2,4-diamine]	7.5	13.1
CN(C)CCNc1nc(Nc2cccc(F)c2)nc2ccccc12 [Compound 63, N^4-(2-(dimethylamino)ethyl)-N^2-(3-fluorophenyl)quinazoline-2,4-diamine]	19.8	5.67
COc1ccc(CCNc2nc(NCCN(C)C)c3ccccc3n2)cc1 [Compound 65, N^4-(2-(dimethylamino)ethyl)-N^2-(4-methoxyphenethyl)quinazoline-2,4-diamine]	19.4	6.17
CCc1ccc(CCNc2nc(NCCN(C)C)c3ccccc3n2)cc1 [Compound 66, N^4-(2-(dimethylamino)ethyl)-N^2-(4-ethylphenethyl)quinazoline-2,4-diamine]	> 30	13.7
CN(C)CCNc1nc(NCCc2cccc(F)c2)nc2ccccc12 [Compound 67, N^4-(2-(dimethylamino)ethyl)-N^2-(3-fluorophenethyl)quinazoline-2,4-diamine]	5.9	7.59
CN(C)CCNc1nc(NCCc2ccc(F)cc2)nc2ccccc12 [Compound 68, N^4-(2-(dimethylamino)ethyl)-N^2-(4-fluorophenethyl)quinazoline-2,4-diamine]	6.65	3.91
COc1ccc(Nc2nc(NCCCN(C)C)c3ccccc3n2)cc1 [Compound 70, N^4-(3-(dimethylamino)propyl)-N^2-(4-methoxyphenyl)quinazoline-2,4-diamine]	11.7	8.33
CN(C)CCCNc1nc(Nc2cccc(F)c2)nc2ccccc12 [Compound 72, N^4-(3-(dimethylamino)propyl)-N^2-(3-fluorophenyl)quinazoline-2,4-diamine]	11.2	3.43

Next, values leading:

IC50 (A549 (NSCLC)) [µM]	IC50 (A2780 (ovarian)) [µM]	SMILES
11.7	2.13	CN(C)CCCNc1nc(Nc2ccc(F)cc2)nc2ccccc12 [Compound 73, N^4-(3-(dimethylamino)propyl)-N^2-(4-fluorophenyl)quinazoline-2,4-diamine]
8.88	7.11	CCc1ccc(CCNc2nc(NCCCN(C)C)c3ccccc3n2)cc1 [Compound 76, N^4-(3-(dimethylamino)propyl)-N^2-(4-ethylphenethyl)quinazoline-2,4-diamine]
> 30	18.9	FC(F)(F)c1cccc(Nc2nc(NCCc3c[nH]cn3)c3ccccc3n2)c1 [Compound 79, N^4-(2-(1H-imidazol-4-yl)ethyl)-N^2-(3-(trifluoromethyl)phenyl)quinazoline-2,4-diamine]
3.87	5.19	OCCNc1nc(NCCc2cccc(F)c2)nc2ccccc12 [Compound 90, 2-((2-((3-fluorophenethyl)amino)quinazolin-4-yl)amino)ethan-1-ol]
6.76	5.42	OCCNc1nc(NCCc2ccc(F)cc2)nc2ccccc12 [Compound 91, 2-((2-((4-fluorophenethyl)amino)quinazolin-4-yl)amino)ethan-1-ol]
5.57	4.59	OCCCNc1nc(NCCc2cccc(F)c2)nc2ccccc12 [Compound 94, 3-((2-((3-fluorophenethyl)amino)quinazolin-4-yl)amino)propan-1-ol]
22.2	10.3	CN(C)CCNc1nc(-n2cccc2)nc2ccccc12 [Compound 99, N^1-(2-(1H-pyrrol-1-yl)quinazolin-4-yl)-N^2,N^2-dimethylethane-1,2-diamine]
19.4	11.8	CN(C)CCCNc1nc(-c2ccsc2)nc2ccccc12 [Compound 100, N^1,N^1-dimethyl-N^3-(2-(thiophen-3-yl)quinazolin-4-yl)propane-1,3-diamine]
11.6	12.5	CN(C)CCCNc1nc(-c2ccc[nH]2)nc2ccccc12 [Compound 101, N^1-(2-(1H-pyrrol-2-yl)quinazolin-4-yl)-N^3,N^3-dimethylpropane-1,3-diamine]
7.45	1.32	CN(C)CCCNc1nc(-c2cc[nH]c2)nc2ccccc12 [Compound 102, N^1-(2-(1H-pyrrol-3-yl)quinazolin-4-yl)-N^3,N^3-dimethylpropane-1,3-diamine]
24.1	16.5	CN(C)CCCNc1nc(-n2cccc2)nc2ccccc12 [Compound 103, N^1-(2-(1H-pyrrol-1-yl)quinazolin-4-yl)-N^3,N^3-dimethylpropane-1,3-diamine]
> 30	> 30	c1csc(-c2nc(NCCc3c[nH]cn3)c3ccccc3n2)c1 [Compound 104, N-(2-(1H-imidazol-4-yl)ethyl)-2-(thiophen-2-yl)quinazolin-4-amine]
24.1	9.05	c1ccc2c(NCCc3c[nH]cn3)nc(-c3ccsc3)nc2c1 [Compound 105, N-(2-(1H-imidazol-4-yl)ethyl)-2-(thiophen-3-yl)quinazolin-4-amine]
15.6	8.43	c1c[nH]c(-c2nc(NCCc3c[nH]cn3)c3ccccc3n2)c1 [Compound 106, N-(2-(1H-imidazol-4-yl)ethyl)-2-(1H-pyrrol-2-yl)quinazolin-4-amine]
9.4	1.95	c1ccc2c(NCCc3c[nH]cn3)nc(-c3cc[nH]c3)nc2c1 [Compound 107, N-(2-(1H-imidazol-4-yl)ethyl)-2-(1H-pyrrol-3-yl)quinazolin-4-amine]
9.53	5.79	c1ccc2c(NCCc3c[nH]cn3)nc(-n3cccc3)nc2c1 [Compound 108, N-(2-(1H-imidazol-4-yl)ethyl)-2-(1H-pyrrol-1-yl)quinazolin-4-amine]
21.1	13	OCCCNc1nc(-c2ccc[nH]2)nc2ccccc12 [Compound 109, 3-((2-(1H-pyrrol-2-yl)quinazolin-4-yl)amino)propan-1-ol]
9.19	4.87	OCCCNc1nc(-c2cc[nH]c2)nc2ccccc12 [Compound 110, 3-((2-(1H-pyrrol-3-yl)quinazolin-4-yl)amino)propan-1-ol]
> 30	> 30	OCCCNc1nc(-n2cccc2)nc2ccccc12 [Compound 111, 3-((2-(1H-pyrrol-1-yl)quinazolin-4-yl)amino)propan-1-ol]
8.79	2.54	FC(F)(F)c1cccc(CCNc2nc(NCCN3CCOCC3)c3ccccc3n2)c1 [Compound 113, N^4-(2-morpholinoethyl)-N^2-(3-(trifluoromethyl)phenethyl)quinazoline-2,4-diamine]
2.36	0.937	FC(F)(F)c1cccc(CCNc2nc(NCCN3CCCCC3)c3ccccc3n2)c1 [Compound 114, N^4-(2-(piperidin-1-yl)ethyl)-N^2-(3-(trifluoromethyl)phenethyl)quinazoline-2,4-diamine]
